These results are taken from US9993001B2, “Herbicidal composition” (ISHIHARA SANGYO KAISHA, LTD., priority 2014, dated 2018).

Holding throughout (type): in vivo
Experiment [1] relates to barnyardgrass (Echinochloa crus-qalli L.). Description: Test Example 5: adzuki bean field, soil treatment, metobromuron + fluazifop-P-butyl. The note with it: 700 g/ha; soil treatment, adzuki bean field; 39th day after treatment. The text has this:
(§1) When the herbicidal activity in a case where two active ingredients are combined, is larger than the simple sum of the respective herbicidal activities of the two active ingredients (the expected activity), it is called a synergistic effect. The activity expected by the combination of two active ingredients can be calculated as follows (Colby S. R., “Weed”, vol. 15, p. 20-22, 1967). E=α+β−(α×β[…]) where α: growth inhibition rate when treated with x (g/ha) of herbicide X, • β: growth inhibition rate when treated with y (g/ha) of herbicide Y, • E: growth inhibition rate expected when treated with x (g/ha) of herbicide X and y (g/ha) of herbicide Y.
(§2) On the 19th day after treatment, the state of growth of barnyardgrass was visually observed and evaluated in accordance with the following standards. The growth inhibition rate (%) [measured value] and the growth inhibition rate (%) [calculated value] calculated by the Colby's method, are shown in Table 2.
(§3) Growth inhibition rate (%)=inhibition rate) (%) of 0 (equivalent to the non-treated area) to 100 (complete kill) […]
On the 39th day after treatment, the state of growth of barnyardgrass (Echinochloa crus-qalli L.) which occurred naturally, was visually observed and evaluated in the same manner as in Test Example 1.

In experiment [2] the test system is black nightshade (Solanum nigrum L.). Put plainly: Test Example 23: pot, soil treatment, metobromuron + fluazifop-P-butyl. The settings on record: 131.25 g/ha; soil treatment, pot; 20th day after treatment.
Description: as §1, §2
(§4) Growth inhibition rate (%)=inhibition rate) (%) of 0 (equivalent to the non-treated area) to 100 (complete kill)
Soil was put into a 1/300,000 ha pot, and seeds of black nightshade (Solanum nigrum L.) were sown. […]
On the 20th day after treatment, the state of growth of black nightshade was visually observed and evaluated in the same manner as in Test Example 1.

Experiment [3] concerns Oriental lady's thumb (Persicaria longiseta). Description: Test Example 7: common bean field, soil treatment, metobromuron + trifluralin. The note with it: 1335 g/ha, soil treatment, common bean field, 49th day after treatment, read-out: Growth inhibition rate of Oriental lady's thumb (%) Measured value.
Description: as §1, §2, §3
On the 49th day after treatment, the state of growth of Oriental lady's thumb (Persicaria longiseta) which occurred naturally, was visually observed and evaluated in the same manner as in Test Example 1.

Experiment [4] deals with common chickweed (Stellaria media L.). Description: Test Example 25: pot, soil treatment, metobromuron + trifluralin. The note with it: 445 g/ha, soil treatment, pot, 21st day after treatment, read-out: Growth inhibition rate of common chickweed (%) Measured value.
In experiment [5] the test system is common lambsquarters (Chenopodium album L.). Put plainly: Test Example 24: pot, soil treatment, metobromuron + trifluralin. The note with it: soil treatment, pot, 21st day after treatment, read-out: Growth inhibition rate of common lambsquarters (%) Measured value.
Description: as §1, §2, §4
Soil was put into a 1/300,000 ha pot, and seeds of common lambsquarters (Chenopodium album L.) were sown. On the day after seeding, predetermined amounts of SC containing metobromuron as active ingredient (same as in Test Example 1) and EC containing trifluralin as active ingredient (same as in Test Example 4) were diluted with water corresponding to 1,000 L per hectare and applied for soil treatment.
On the 21st day after treatment, the state of growth of common lambsquarters was visually observed and evaluated in the same manner as in Test Example 1.

The test system of experiment [6] is barnyardgrass (Echinochloa crus-qalli L.). Description: Test Example 4: soybean field, soil treatment, metobromuron + trifluralin. The settings on record: 890 g/ha, soil treatment, soybean field, 50th day after treatment, read-out: Growth inhibition rate of barnyardgrass (%) Measured value.
Description: as §1, §2, §3
On the 50th day after treatment, the state of growth of barnyardgrass (Echinochloa crus-qalli L.) which occurred naturally, was visually observed and evaluated in the same manner as in Test Example 1.

Regarding `CCCCOC(=O)[C@@H](C)Oc1ccc(Oc2ccc(C(F)(F)F)cn2)cc1` [Fluazifop-P-butyl, butyl (R)-2-[4-[5-(trifluoromethyl)-2-pyridyloxy]phenoxy] propionate], the “Growth inhibition rate of barnyardgrass (%) Measured value” in experiment [1] is 55%. In addition, in experiment [2], the “Growth inhibition rate of black nightshade (%) Measured value” was found to be 25%.

As for `CCCN(CCC)c1c([N+](=O)[O-])cc(C(F)(F)F)cc1[N+](=O)[O-]` [Trifluralin, α,α,α-trifluoro-2,6-dinitro-N,N-dipropyl-p-toluidine], the inhibition at 1335 g/ha in experiment [3] is 40%. In addition, the inhibition at 445 g/ha in experiment [4] was 35%; in experiment [5] (445 g/ha) it was 15%. Moreover, in experiment [5] (296.7 g/ha), the inhibition at 296.7 g/ha was 20%. In addition, in experiment [5] (667.5 g/ha), the inhibition at 667.5 g/ha turned out to be 48%. Moreover, the inhibition at 890 g/ha in experiment [6] was 20%.
